The results in this text go back to patent publication US12257247B2 (Monte Rosa Therapeutics AG, priority 2023, dated 2025).

Molecules are shown by their SMILES. Read-outs that look alike come from different tables or passages of the source. A value given as a limit tells only on which side of the number the result lay.

For this experiment, the target named is T1, VAV1 (Homo sapiens, UniProt P15498+Q96SW2).
T1 construct: A heterozygous VAV1 C-terminal HiBiT knock-in pool was generated at Monte Rosa Therapeutics from a clonal Jurkat cell; endogenous in cells; host or cells: Jurkat clone stably expressing LgBiT, homozygous GSPT1-G575N; heterozygous VAV1-HiBiT knock-in pool
The experiment can be described thus: VAV1 degradation activity, VAV1-HiBiT knock-in Jurkat luminescence assay (Example A, Table 1). Type of experiment: cell-based. The conditions noted are these: VAV1-HiBiT knock-in Jurkat cells, luminescence read at 6 and 24 hours; for Dmax: Jurkat. Put shortly: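 Luminescence was measured at 6 and 24 h after adding compound (10 μM stock) to VAV1-HiBiT knock-in Jurkat cells, which had been pre-incubated ~16 h at 37° C. in RPMI/10% FBS containing Endurazine. EC50 values came from control-normalised responses fitted to a 3-parameter logistic model with hillslope fixed at 1.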

[1] abbreviates: read-out: VAV1 DC50 (nM), class.

Take `O=C1CCC(c2cccc(-c3cnc(Cn4ccccc4=O)c(F)c3)c2Cl)C(=O)N1` (stereo not drawn) [Compound 412, 3-(2-chloro-3-(5-fluoro-6-((2-oxopyridin-1(2H)-yl)methyl)pyridin-3-yl)phenyl)piperidine-2,6-dione]: the Dmax reads like this: (read-out: VAV1 Dmax %) 67.3%; (read-out: VAV1 Dmax %, class) 60 to 90%. In addition, the DC50 is 418 nM (read-out: VAV1 DC50) and 100 to 1000 nM under setting [1].
The corresponding values for `CC1(C)CCC(=O)N1c1ccc(-c2cccc(C3CCC(=O)NC3=O)c2Cl)cc1` (stereo not drawn) [Compound 413, 3-(2-chloro-4′-(2,2-dimethyl-5-oxopyrrolidin-1-yl)-[1,1′-biphenyl]-3-yl)piperidine-2,6-dione] are 97.5%, > 90%, 4.87 nM and ≤ 100 nM.
The corresponding values for `O=C1CCC(c2cccc(-c3ccc(N4C(=O)CCC45CC5)cc3)c2Cl)C(=O)N1` (stereo not drawn) [Compound 414, 3-(2-chloro-4′-(5-oxo-4-azaspiro[2.4]heptan-4-yl)-[1,1′-biphenyl]-3-yl)piperidine-2,6-dione] are 97.7%, > 90%, 5.85 nM and ≤ 100 nM.
In the case of `CC1(C)COC(=O)N1c1ccc(-c2cccc(C3CCC(=O)NC3=O)c2Cl)cc1` (stereo not drawn) [Compound 415, 3-(2-chloro-4′-(4,4-dimethyl-2-oxooxazolidin-3-yl)-[1,1′-biphenyl]-3-yl)piperidine-2,6-dione], the Dmax is, setting by setting: (read-out: VAV1 Dmax %) 97.2%; (read-out: VAV1 Dmax %, class) > 90%. Also, the 50% degradation concentration (DC50) is 4.87 nM (read-out: VAV1 DC50) and ≤ 100 nM under setting [1].
The corresponding values for `O=C1CCC(c2cccc(-c3ccc(N4C(=O)OCC45CCC5)cc3)c2Cl)C(=O)N1` (stereo not drawn) [Compound 416, 3-(2-chloro-4′-(6-oxo-7-oxa-5-azaspiro[3.4]octan-5-yl)-[1,1′-biphenyl]-3-yl)piperidine-2,6-dione] are 98%, > 90%, 3.54 nM and ≤ 100 nM.
The corresponding values for `O=C1CCC(c2cccc(-c3ccc(-n4cccc(CC(F)(F)F)c4=O)cc3)c2Cl)C(=O)N1` (stereo not drawn) [Compound 417, 3-(2-chloro-4′-(2-oxo-3-(2,2,2-trifluoroethyl)pyridin-1(2H)-yl)-[1,1′-biphenyl]-3-yl)piperidine-2,6-dione] are 98.5%, > 90%, 6.68 nM and ≤ 100 nM.
The corresponding values for `O=C1CCC(c2cccc(-c3ccc(N4C(=O)CC45CCOCC5)cc3)c2Cl)C(=O)N1` (stereo not drawn) [Compound 418, 3-(2-chloro-4′-(2-oxo-7-oxa-1-azaspiro-[3.5]nonan-1-yl)-[1,1′-biphenyl]-3-yl)piperidine-2,6-dione] are 45.2%, < 60%, ≥ 10000 nM and > 1000 nM.
Consider `O=C1CCC(c2cccc(-c3ccc(-n4cccnc4=O)c(F)c3)c2Cl)C(=O)N1` (stereo not drawn) [Compound 419, 3-(2-chloro-3′-fluoro-4′-(2-oxopyrimidin-1(2H)-yl)-[1,1′-biphenyl]-3-yl)piperidine-2,6-dione], for which the Dmax was 90.7% (read-out: VAV1 Dmax %) and > 90% (read-out: VAV1 Dmax %, class). Besides, the DC50 (read-out: VAV1 DC50) was found to be 43.1 nM and the DC50 under setting [1] was ≤ 100 nM.
For the compound `Cc1cnc(Cc2ccc(-c3cccc(C4CCC(=O)NC4=O)c3Cl)cc2)nc1` (stereo not drawn) [Compound 420, 3-(2-chloro-4′-((5-methylpyrimidin-2-yl)methyl)-[1,1′-biphenyl]-3-yl)piperidine-2,6-dione], the maximal degradation (Dmax) (read-out: VAV1 Dmax %) worked out at 98.8% and the Dmax (read-out: VAV1 Dmax %, class) was > 90%. For the same compound, the 50% degradation concentration (DC50) reads like this: (read-out: VAV1 DC50) 2.43 nM; under setting [1], ≤ 100 nM.
The corresponding values for `COc1ccnc(Cc2ccc(-c3cccc(C4CCC(=O)NC4=O)c3Cl)cc2)n1` (stereo not drawn) [Compound 421, 3-(2-chloro-4′-((4-methoxypyrimidin-2-yl)methyl)-[1,1′-biphenyl]-3-yl)piperidine-2,6-dione] are 97.8%, > 90%, 6.96 nM and ≤ 100 nM.
Turning to `COc1cnc(Cc2ccc(-c3cccc(C4CCC(=O)NC4=O)c3Cl)cc2)nc1` (stereo not drawn) [Compound 422, 3-(2-chloro-4′-((5-methoxypyrimidin-2-yl)methyl)-[1,1′-biphenyl]-3-yl)piperidine-2,6-dione], the Dmax is 98.4% (read-out: VAV1 Dmax %) and > 90% (read-out: VAV1 Dmax %, class). Also, the DC50 is 4.35 nM (read-out: VAV1 DC50) and ≤ 100 nM under setting [1].
The corresponding values for `O=C1CCC(c2cccc(-c3ccc(CS(=O)(=O)N4CCCC4)cc3)c2Cl)C(=O)N1` (stereo not drawn) [Compound 423, 3-(2-chloro-4′-((pyrrolidin-1-ylsulfonyl)methyl)-[1,1′-biphenyl]-3-yl)piperidine-2,6-dione] are 74.6%, 60 to 90%, 144 nM and 100 to 1000 nM.
The corresponding values for `CN1CCCN(Cc2ccc(-c3cccc(C4CCC(=O)NC4=O)c3Cl)cc2)C1=O` (stereo not drawn) [Compound 424, 3-(2-chloro-4′-((3-methyl-2-oxotetrahydropyrimidin-1(2H)-yl)methyl)-[1,1′-biphenyl]-3-yl)piperidine-2,6-dione] are 95.3%, > 90%, 9.94 nM and ≤ 100 nM.
The corresponding values for `CN1CCCN(Cc2ccc(-c3cccc(C4CCC(=O)NC4=O)c3Cl)cc2F)C1=O` (stereo not drawn) [Compound 425, 3-(2-chloro-3′-fluoro-4′-((3-methyl-2-oxotetrahydropyrimidin-1(2H)-yl)methyl)-[1,1′-biphenyl]-3-yl)piperidine-2,6-dione] are 96.5%, > 90%, 10.7 nM and ≤ 100 nM.
Regarding `O=C1CCC(c2cccc(-c3ccc(N4C(=O)OCC45CC5)cc3)c2Cl)C(=O)N1` (stereo not drawn) [Compound 426, 3-(2-chloro-4′-(5-oxo-6-oxa-4-azaspiro[2.4]heptan-4-yl)-[1,1′-biphenyl]-3-yl)piperidine-2,6-dione], the greatest degradation seen (Dmax) is 96.5% (read-out: VAV1 Dmax %) and > 90% (read-out: VAV1 Dmax %, class). In addition, the 50% degradation concentration (DC50) was 8.9 nM (read-out: VAV1 DC50) and ≤ 100 nM under setting [1].
Consider `O=C1CCC(c2cccc(-c3cnc(-n4ccccc4=O)c(F)c3)c2Cl)C(=O)N1` (stereo not drawn) [Compound 427, 3-(2-chloro-3-(3′-fluoro-2-oxo-2H-[1,2′-bipyridin]-5′-yl)phenyl)piperidine-2,6-dione], for which the Dmax runs as follows: (read-out: VAV1 Dmax %) 79.6%; (read-out: VAV1 Dmax %, class) 60 to 90%. The half-maximal degradation concentration (DC50) by setting is: (read-out: VAV1 DC50) 246 nM; under setting [1], 100 to 1000 nM.
Regarding `Cn1ccc(C(F)(F)F)c(-c2ccc(-c3cccc(C4CCC(=O)NC4=O)c3Cl)cc2)c1=O` (stereo not drawn) [Compound 428, 3-(2-chloro-4′-(1-methyl-2-oxo-4-(trifluoromethyl)-1,2-dihydropyridin-3-yl)-[1,1′-biphenyl]-3-yl)piperidine-2,6-dione], the Dmax by setting is: (read-out: VAV1 Dmax %) 98.8%; (read-out: VAV1 Dmax %, class) > 90%. Moreover, the half-maximal degradation concentration (DC50) (read-out: VAV1 DC50) is 2.25 nM and the DC50 under setting [1] is ≤ 100 nM.
The corresponding values for `O=C1CCC(c2cccc(-c3ccc(N4CCCN(CC(F)F)C4=O)cc3)c2Cl)C(=O)N1` (stereo not drawn) [Compound 429, 3-(2-chloro-4′-(3-(2,2-difluoroethyl)-2-oxotetrahydropyrimidin-1(2H)-yl)-[1,1′-biphenyl]-3-yl)piperidine-2,6-dione] are 96.9%, > 90%, 5.19 nM and ≤ 100 nM.
